The results in this text go back to US11261183B2, “Sulfoximine glycosidase inhibitors” (Asceneuron SA, priority 2016, dated 2022).

Data set [1] concerns the target Human O-GlcNAcase (His-Tagged hOGA) (Homo sapiens (Human), UniProt O60502). The data set is described as follows: Human O-GlcNAcase enzyme inhibition assay. The data set is classed as biochemical. The conditions noted are these: His-Tagged hOGA 20 nM, FL-GlcNAc 10 μM, 60 min, room temperature, pH 6.5; read-out: Enzymatic OGA IC50. How it is done: Example B01: Human O-GlcNAcase enzyme inhibition assay
5 μl of the appropriate concentration of a solution of inhibitor in McIlvaine's Buffer (pH 6.5) in 2% DMSO (for a dose response curve calculation) is added into each well of a 384-well plate (Greiner, 781900). Then, 20 nM of His-Tagged hOGA and 10 μM of FL-GlcNAc (Fluorescein mono-beta-D-(2-deoxy-2-N-acetyl) glucopyranoside; Marker Gene Technologies Inc, M1485) were added to the 384-well plate for a final volume of 20 μl. After incubation for 60 min at room temperature, the reaction was terminated by the addition of 10 μL of stop buffer (200 mM glycine, pH 10.75).

The nature of data set [2]: Protein binding in mice plasma using Rapid Equilibrium Dialysis. The class given is in vitro ADME, CD1 mice. The conditions noted are these: 37° C.; for fraction unbound at 5 h, 1 µM: male, CD1, mouse, plasma, pH 7.4, CD1 mouse plasma. As for the experimental part: Example B04: Protein binding in mice plasma using Rapid Equilibrium Dialysis
• CD1 Mice Plasma: pooled male, K2-EDTA ([…]2, Bioreclammation, USA • Phosphate Buffered Saline (1×PBS), pH 7.4, 100 mM (Sigma, Cat No. P4417) • RED inserts (Pierce, Cat No. 9006, 8 kDa MWCO) • Sample Analysis: LC-MS/MS Methods • Preparation of DMSO Stock Solution
From 20 mM DMSO stock solutions of reference and test compounds, 1 mM DMSO intermediate working solutions are prepared. From 1 mM intermediate working solutions, 100 μM DMSO working solutions are prepared. • Sample Preparation Procedure:
Selected plasma is brought from −20° C. to 37° C. using water bath before its use. Test solution is prepared by adding the DMSO working solution of the reference or test compound (2 μL; 100 μM) to the selected plasma (198 μL). Spiked plasma (200 μl) is transferred to sample compartment of RED insert placed in the teflon plate. 350 μl of 1×PBS is added in the buffer compartment of RED insert. The teflon plate is covered with sealing mat and agitated at 37° C. for 5 hours at 500 RPM in a Thermomixer. After incubation time, an aliquot of plasma (50 μl) from sample compartment is mixed with blank 1×PBS (50 μl). Similarly, an aliquot of buffer (50 μl) from buffer compartment is mixed with blank plasma (50 μl). Quenching solution (200 μL, acetonitrile containing internal standard tolbutamide (0.5 μg/mL)) is added and the resulting solutions are mixed using a vortex mixer and centrifuged (Eppendorf 5415, 13792 g). Supernatants are analyzed using a Mass Spectrometer. The sample (supernatant fraction, 5 μL) is injected into the LC-MS/MS instrument. • Chromatographic Conditions: LC-MS/MS: API 4000 LC-MS/MS Software: Analyst Version 1.6.1 Column Phenomenex Synergy 30*4.6*5μ Column Oven: 40° C. Mode: ESI Positive Injection volume: 5 μl Flow Rate: […] Buffer: 0.1% Formic acid in Water Method: Isocratic Method/Gradient Composition: A) 0.1% Formic acid in Water B) 0.1% Formic acid in Methanol
After the concentration of free drug and total drug has been determined by LCMS/MS, percent plasma protein binding can be calculated as follows:
[formula] Following this protocol, % fraction unbound in plasma from different species can be also measured.

Each structure is given as a SMILES string. pIC50: −log10 of the molar value.

Human O-GlcNAcase (His-Tagged hOGA), sequence (O60502 whole entry): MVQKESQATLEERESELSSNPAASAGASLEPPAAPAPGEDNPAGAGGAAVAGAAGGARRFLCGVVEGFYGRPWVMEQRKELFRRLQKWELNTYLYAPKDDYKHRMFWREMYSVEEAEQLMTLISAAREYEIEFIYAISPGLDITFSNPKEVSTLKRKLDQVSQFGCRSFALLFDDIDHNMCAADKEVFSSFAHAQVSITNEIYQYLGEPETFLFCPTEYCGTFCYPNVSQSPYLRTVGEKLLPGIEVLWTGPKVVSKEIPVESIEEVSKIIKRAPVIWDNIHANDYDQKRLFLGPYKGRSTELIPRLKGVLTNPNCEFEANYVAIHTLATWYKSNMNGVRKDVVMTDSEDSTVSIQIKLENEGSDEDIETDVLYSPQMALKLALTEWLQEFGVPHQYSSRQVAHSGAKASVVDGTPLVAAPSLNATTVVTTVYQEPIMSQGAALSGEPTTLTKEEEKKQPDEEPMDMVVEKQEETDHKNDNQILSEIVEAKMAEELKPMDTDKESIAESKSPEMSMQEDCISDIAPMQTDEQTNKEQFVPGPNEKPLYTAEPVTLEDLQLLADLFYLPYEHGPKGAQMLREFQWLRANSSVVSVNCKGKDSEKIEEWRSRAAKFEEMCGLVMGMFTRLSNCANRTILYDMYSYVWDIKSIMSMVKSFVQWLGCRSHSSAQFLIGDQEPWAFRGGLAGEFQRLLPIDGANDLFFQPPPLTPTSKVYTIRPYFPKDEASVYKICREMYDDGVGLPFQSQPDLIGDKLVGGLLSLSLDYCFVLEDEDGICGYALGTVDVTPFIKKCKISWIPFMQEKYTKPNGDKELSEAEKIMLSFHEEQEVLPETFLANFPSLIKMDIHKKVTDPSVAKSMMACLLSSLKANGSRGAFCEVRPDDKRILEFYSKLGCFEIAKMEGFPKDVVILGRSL

For orientation: pIC50 means the IC50 on a negative log10 scale, so that one unit is a factor of ten. Usually fraction unbound stands for free concentration divided by total concentration. With `CC(c1ccc2c(c1)OCCC2)N1CCN(c2ncc(S(C)(=N)=O)cn2)CC1` (racemic) [Example 21, (2-(4-(1-(chroman-7-yl)ethyl)piperazin-1-yl)pyrimidin-5-yl)(imino)(methyl)-λ^6-sulfanone], the pIC50 in data set [1] is 6.70 to 7.30. For the same compound, the fraction unbound at 5 h, 1 µM in data set [2] came to 0.222. Taken in the same sequence, the figures for `CC(c1ccc2c(c1)OCC2)N1CCN(c2ncc(C(=O)N=S(C)(C)=O)cn2)CC1` (racemic) [Example 10, 2-(4-(1-(2,3-dihydrobenzofuran-6-yl)ethyl)piperazin-1-yl)-N-(dimethyl(oxo)-λ^6-sulfanylidene)pyrimidine-5-carboxamide] were greater than 7.30 and 0.139. Taken in the same sequence, the figures for `COCCN=S(C)(=O)c1cnc(N2CCN(C(C)c3ccc4c(c3)OCC4)CC2)nc1` (single isomer, unassigned) [Example 17] were greater than 7.30 and 0.208. `Cc1nc2cc(C(C)N3CCN(c4ncc(S(C)(=N)=O)cn4)CC3)ccc2s1` (single isomer, unassigned) [Example 54]: in data set [1], the pIC50 was 5.00 to 6.00. With `CC1Cc2ccc(C(C)N3CCN(c4ncc(S(C)(=N)=O)cn4)CC3)cc2O1` (racemic) [Example 2, Imino(methyl)(2-(4-(1-(2-methyl-2,3-dihydrobenzofuran-6-yl)ethyl)piperazin-1-yl)pyrimidin-5-yl)-λ^6-sulfanone], the fraction unbound at 5 h, 1 µM in data set [2] amounted to 0.222. `CC(c1ccc2c(c1)OCC2)N1CCN(c2ncc3c(n2)CCS(=N)(=O)C3)CC1` (racemic) [Example 61, 2-(4-(1-(2,3-dihydrobenzofuran-6-yl)ethyl)piperazin-1-yl)-6-imino-5,6,7,8-tetrahydro-6λ^4-thiopyrano[4,3-d]pyrimidine 6-oxide]: in data set [1], the pIC50 is greater than 7.30. Besides, the fraction unbound at 5 h, 1 µM in data set [2] is 0.113.

As for `CC(c1ccc2scnc2c1)N1CCN(c2ncc(S(C)(=N)=O)cn2)CC1` (single isomer, unassigned) [Example 38, (R)-(2-(4-(1-(benzo[d]thiazol-5-yl)ethyl)piperazin-1-yl)pyrimidin-5-yl)(imino)(methyl)-λ^6-sulfanone or (S)-(2-(4-(1-(benzo[d]thiazol-5-yl)ethyl)piperazin-1-yl)pyrimidin-5-yl)(imino)(methyl)-λ^6-sulfanone], the pIC50 in data set [1] was 6.70 to 7.30. For `CC(c1ccc2c(c1)OCC2)N1CCN(c2ncc(S(C)(=N)=O)cn2)CC1` (single isomer, unassigned) [Example 12], the pIC50 in data set [1] is greater than 7.30. Moreover, the fraction unbound at 5 h, 1 µM in data set [2] turned out to be 0.424.

Turning to `Cc1nc2cc(C(C)N3CCN(c4ncc(S(C)(=N)=O)cn4)CC3)ccc2s1` (single isomer, unassigned) [Example 53], in data set [1], the pIC50 was greater than 7.30. For the same compound, the “% fraction unbound in mouse plasma” value in data set [2] (CD1 mouse plasma, 5 hours) stood at 12.81%.

As for `CN=S(C)(=O)c1ccc(N2CCN(C(C)c3ccc4sc(C)nc4c3)CC2)nc1` (racemic) [Example 47, methyl(6-(4-(1-(2-methylbenzo[d]thiazol-5-yl)ethyl)piperazin-1-yl)pyridin-3-yl)(methylimino)-λ^6-sulfanone], the pIC50 in data set [1] was 6.70 to 7.30. Also, the unbound share (fraction unbound) at 5 h, 1 µM in data set [2] is 0.0959.

`CC(c1ccc2c(c1)OCC2)N1CCN(c2ncc(S(C)(=N)=O)cn2)CC1` (single isomer, unassigned) [Example 16, (2-(4-((S)-1-(2,3-dihydrobenzofuran-6-yl)ethyl)piperazin-1-yl)pyrimidin-5-yl)(imino)(methyl)-λ^6-sulfanone or (2-(4-((R)-1-(2,3-dihydrobenzofuran-6-yl)ethyl)piperazin-1-yl)pyrimidin-5-yl)(imino)(methyl)-λ^6-sulfanone]: the pIC50 in data set [1] was greater than 7.30. Same read-out and setting: under `CN=S(C)(=O)c1ccc(N2CCN(C(C)c3ccc4scnc4c3)CC2)nc1` (racemic) [Example 30, (6-(4-(1-(benzo[d]thiazol-5-yl)ethyl)piperazin-1-yl)pyridin-3-yl)(methyl)(methylimino)-λ^6-sulfanone] stands 6.70 to 7.30. `CC(c1ccc2c(c1)OCC2)N1CCN(c2ncnc3c2CS(=N)(=O)C3)CC1` (stereo not shown) [Example 60, 4-(4-(1-(2,3-dihydrobenzofuran-6-yl)ethyl)piperazin-1-yl)-6-imino-6,7-dihydro-5H-6δ^4-thieno[3,4-d]pyrimidine 6-oxide]: the fraction unbound at 5 h, 1 µM in data set [2] turned out to be 0.0779.

On to `Cc1nc2cc(C(C)N3CCN(c4ncc(S(C)(=N)=O)cn4)CC3)ccc2s1` (single isomer, unassigned) [Example 52], for which the pIC50 in data set [1] is 6.00 to 6.70. Regarding `Cc1nc2cc(C(C)N3CCN(c4ccc(S(C)(=N)=O)cc4)CC3)ccc2s1` (racemic) [Example 50, imino(methyl)(4-(4-(1-(2-methylbenzo[d]thiazol-5-yl)ethyl)piperazin-1-yl)phenyl)-λ^6-sulfanone], the pIC50 in data set [1] is greater than 7.30. In the case of `CC(c1ccc2c(c1)OCC2)N1CCN(c2ncc(S(C)(=N)=O)cn2)CC1` (single isomer, unassigned) [Example 15], in data set [1], the pIC50 was 5.00 to 6.00. On the same count and under the same terms, the figure for `CC(C)N=S(C)(=O)c1cnc(N2CCN(C(C)c3ccc4scnc4c3)CC2)nc1` (racemic) [Example 28, (2-(4-(1-(benzo[d]thiazol-5-yl)ethyl)piperazin-1-yl)pyrimidin-5-yl)(isopropylimino)(methyl)-λ^6-sulfanone] is 6.70 to 7.30.

As for `CC(c1ccc2scnc2c1)N1CCN(c2ncc(S(C)(=N)=O)cn2)CC1` (single isomer, unassigned) [Example 39, (R)-(2-(4-(1-(benzo[d]thiazol-5-yl)ethyl)piperazin-1-yl)pyrimidin-5-yl)(imino)(methyl)-λ^6-sulfanone or (S)-(2-(4-(1-(benzo[d]thiazol-5-yl)ethyl)piperazin-1-yl)pyrimidin-5-yl)(imino)(methyl)-λ^6-sulfanone], the pIC50 in data set [1] was greater than 7.30. For the compound `CC(c1ccc2scnc2c1)N1CCN(c2ncc(S(C)(=N)=O)cn2)CC1` (single isomer, unassigned) [Example 40], the pIC50 in data set [1] was 5.00 to 6.00. Turning to `CC(c1ccc2c(c1)OCC2)N1CCN(c2ncc(S(C)(=N)=O)cn2)CC1` (single isomer, unassigned) [Example 13], in data set [1], the pIC50 was 6.00 to 6.70.

For `CC(C)N=S(C)(=O)c1cnc(N2CCN(C(C)c3ccc4c(c3)OCC4)CC2)nc1` (single isomer, unassigned) [Example 19], the pIC50 in data set [1] is greater than 7.30. The same measure, in the same setting: the figure for `CC(c1ccc2nccnc2c1)N1CCN(c2ncc(S(C)(=N)=O)cn2)CC1` (racemic) [Example 57, imino(methyl)(2-(4-(1-(quinoxalin-6-yl)ethyl)piperazin-1-yl)pyrimidin-5-yl)-λ^6-sulfanone] is 6.70 to 7.30.

As for `Cc1nc2cc(C(C)N3CCN(c4ncc5c(n4)CCS(=N)(=O)C5)CC3)ccc2s1` (racemic) [Example 58, 6-imino-2-(4-(1-(2-methylbenzo[d]thiazol-5-yl)ethyl)piperazin-1-yl)-5,6,7,8-tetrahydro-6λ^4-thiopyrano[4,3-d]pyrimidine 6-oxide], in data set [1], the negative logarithm of the IC50 (pIC50) is greater than 7.30. Consider `CC(c1ccc2scnc2c1)N1CCN(c2ncc(S(C)(=N)=O)cn2)CC1` (single isomer, unassigned) [Example 41], for which the negative-log IC50 (pIC50) in data set [1] is 5.00 to 6.00. For the compound `CCS(=N)(=O)c1cnc(N2CCN(C(C)c3ccc4sc(C)nc4c3)CC2)nc1` (racemic) [Example 43, ethyl(imino)(2-(4-(1-(2-methylbenzo[d]thiazol-5-yl)ethyl)piperazin-1-yl)pyrimidin-5-yl)-λ^6-sulfanone], in data set [1], the pIC50 is greater than 7.30. Still for that read-out and setting: under `CCN=S(C)(=O)c1cnc(N2CCN(C(C)c3ccc4c(c3)OCC4)CC2)nc1` (single isomer, unassigned) [Example 18] stands greater than 7.30; under `CCCS(=N)(=O)c1cnc(N2CCN(C(C)c3ccc4sc(C)nc4c3)CC2)nc1` (racemic) [Example 44, Imino(2-(4-(1-(2-methylbenzo[d]thiazol-5-yl)ethyl)piperazin-1-yl)pyrimidin-5-yl)(propyl)-λ^6-sulfanone], greater than 7.30.
